The values below come from paper PMC12020424, “Identification and Validation of Cyclic Peptides with Mucin-Selective, Location-Specific Binding in the Gastrointestinal Tract” (ACS Nano, 2025).

The subject of this test is MUC5AC-containing stomach tissue. Kind of test: Ex vivo fluorescent binding to stomach tissue. Details: species or system porcine. Conditions: MUC5AC-selective peptides to stomach. From the text: After identifying the peptide hits for each mucin, we tested their binding in an ex vivo setting (Figure S1), evaluating their interaction with mucin-containing porcine tissue and semiquantitatively representing it through fluorescent imaging (Figure 3a). The cyclic peptides were synthesized and conjugated to a fluorophore, Alexa Fluor 647 (AF647), at the N-terminus to allow fluorescent imaging to be used to semiquantitatively measure the peptides’ ex vivo tissue binding, compared to free AF647 and AF647 conjugated to wheat germ agglutinin (WGA), a known lectin for glycoproteins.[40] […] Porcine GI tissue was used due to its similarity in mucin expression compared to human GI tissue and its capacity to source large surface areas of tissue for experiments.[41],[42] Representative IVIS images are shown in Figure 3b-e, where the first four columns represent the four identified peptides (M2.1–M2.4 in Figure 3b,c, M5.1–M5.4 in Figure 3d,e), the fifth column represents WGA-AF647, and the sixth column represents AF647. The “score” results for the peptide ligands are presented in Figure 3f,g for the mucins of interest, with Tables S2–S5 and Figure S3 detailing results for the other tissues (the equation for calculating the “score” is found in the Materials and Methodssection). […] We also examined selectivity by incubating peptides on nontarget tissues. Figure 3h,i depicts the “selectivity” results for the MUC2-selective and MUC5AC-selective peptides, respectively. Selectivity was calculated by determining the ratio of the “score” for a particular mucin to the sum of the “scores” for all mucins (see the Materials and Methods section for the equation used).
The top-performing hits from phage display were tested on ex vivo segments of porcine mucin-containing tissues (jejunal, stomach, and esophageal tissues) obtained from local abattoirs or laboratory-maintained pigs. Tissue was used either immediately after acquisition or after storage at −80 °C; tissue was used at most 1 week after acquisition and storage at −80 °C. After acquisition and equilibration to room temperature, the tissue was washed twice with 25 mL (each) of cold 1× PBS to remove undigested food and other debris. After washing and cleaning, the tissue was mounted between two magnetic plates with holes corresponding to a 48-well plate, as previously described,[72] such that the luminal side of the tissue was facing up (Figure S1). After the tissue was mounted, the amount of peptide/protein corresponding to 40 μg of AF647 was suspended in 200 μL of 1× PBS and added to the wells created by the magnetic plates. This was done 3× for each formulation to perform the experiment in triplicate. In addition, plain 1× PBS was added to one well to serve as the background measurement. […] After washing was complete, fluorescence imaging was performed using an IVIS Spectrum fluorescent imaging system (PerkinElmer), with an automatically calculated exposure time (usually ∼1 s), a 20 cm × 20 cm field of view, and an excitation/emission of 640/680 nm, respectively. The imaging results were analyzed using Living Image software to calculate the total fluorescence intensity for each well, and the results for each hit or control were averaged across different wells. […]
To better account for tissue-to-tissue variability, the results for each trial were reported as scores rather than using the raw fluorescence intensity. […]

Bridge positions count the residues as written; N and C are the ends. Ends that are not written are not given here.

On to “CTDKASSSC (disulfide 1-9 (inferred)) [Peptide M5.1, CX7C cyclic peptide hit for MUC5AC]”, for which the “Overall nanoparticle “score”” value (scaled between free AF647 (0) and WGA-AF647 (1), mean across trials n = 3) is 0.800. This sequence also yielded a Selectivity (score for MUC5AC tissue / sum of scores for all mucins, n = 3) of 0.370.
